Where two headings read alike, the source gives them in different places.
Columns and labels:
hERG potassium channel = molecular target: T1, hERG potassium channel (Homo sapiens, UniProt Q12809); assay: hERG potassium channel activity assay (manual whole-cell patch clamp); assay type: cell-based
T1 construct: expressed in transfected cells
From the text: Experimental platform: Manual electrophysiological patch-clamp system
Cell line: Chinese hamster ovary (CHO) cell line stably expressing hERG potassium channel
Experimental method: In Chinese Hamster Ovary (CHO) cells stably expressing hERG potassium channel, whole-cell patch-clamp technique was used to record hERG potassium channel current at room temperature. The glass microelectrodes were pulled from glass electrode blanks (BF150-86-10, Sutter) by a glass microelectrode puller. The tip resistance of the microelectrodes after being filled with intrapipette solution was about 2-5 MΩ. The glass microelectrodes were connected to the patch-clamp amplifier by inserting them into an amplifier probe. The clamping voltage and data recording were controlled and recorded by the pClamp 10 software through a computer, with a sampling frequency of 10 kHz and a filtering frequency of 2 kHz. […]
Compound IC50 was calculated using GraphPad Prism 5 software by fitting according to the following equation: Y = Bottom + (Top−Bottom)/(1+10^(∧)((LogIC50−X)*HillSlope)) [formula] where X is the Log value of the test compound concentration, Y is the inhibition percentage at the corresponding concentration, and Bottom and Top are the minimum and maximum inhibition percentage, respectively.

[1] = Mouse pharmacokinetic assay; assay type: in vivo, Balb/c mice; settings: for pharmacokinetic properties: mouse
Experimental: 4.1. Experimental animals: Male Balb/c mice, about 22 g, 6-8 weeks old, 6 mice/compound. The animals were purchased from CHENGDU DOSSY EXPERIMENTAL ANIMALS CO., LTD.
4.2. Experimental design: On the day of the experiment, the Balb/c mice were randomly grouped according to their body weights. The animals were fasted with water available for 12-14 h one day before the administration, and were fed 4 h after the administration. Table 4. Administration information
Vehicle for intravenous administration: 5% DMA + 5% Solutol + 90% Saline; and vehicle for intragastric administration: 5% DMSO + 95% (20% SBE-β-CD in Saline)
Before and after the administration, 0.03 ml of blood was taken from the orbit under isoflurane anesthesia and placed in an EDTAK2 centrifuge tube. The tube was centrifuged at 5000 rpm at 4°C for 10 min, and plasma was collected. The blood collection time points for the intravenous administration group and intragastric administration group were as follows: 0, 2 min, 5 min, 15 min, 30 min, 1 h, 2 h, 4 h, and 7 h. Before analysis and detection, all samples were stored at - 80°C. Table 5. Pharmacokinetic parameters of test compounds in mouse plasma

[2] = Beagle dog pharmacokinetic assay; assay type: in vivo, Beagle dogs; settings: po; Beagle dog plasma, i.g. (3 mg/kg)
Experimental: 7.1. Experimental animals: Male Beagle dogs, about 8-13 kg, 6 Beagle dogs/compound.
7.2. Experimental method: On the day of the experiment, the Beagle dogs were randomly grouped according to their body weights. The animals were fasted with water available for 14-18 h one day before the administration, and were fed 4 h after the administration. The animals were administered according to Table 6. Table 6. Administration information
Note: Vehicle for intravenous administration: 5% DMA + 5% Solutol + 90% Saline; and vehicle for intragastric administration: 5% DMSO + 95% (20% SBE-β-CD in Saline) (DMA: dimethylacetamide; Solutol: polyethylene glycol-15-hydroxystearate; Saline: normal saline; and MC: methylcellulose)
Before and after the administration, 1 ml of blood was taken from the jugular veins or limb veins and placed in an EDTAK2 centrifuge tube. The tube was centrifuged at 5000 rpm at 4°C for 10 min, and plasma was collected. The blood collection time points for the intravenous administration group and intragastric administration group were as follows: 0, 5 min, 15 min, 30 min, 1 h, 2 h, 4 h, 6 h, 8 h, 10 h, 12 h, 24 h, and 48 h. Before analysis and detection, all samples were stored at -80°C. The samples were analyzed quantitatively by LC-MS/MS. Table 7. Pharmacokinetic parameters of test compounds in Beagle dog plasma

HT-29 cells = assay: HT-29 cell proliferation inhibition assay (CellTiter-Glo); assay type: cell-based; settings: Homo sapiens, 96 h, 4 days, read-out: Inhibitory activity against HT-29 cell proliferation IC50
Experimental: The culture conditions for HT-29 cells were as follows: DMEM + 10% FBS + 1% penicillin-streptomycin, and the cells were cultured in an incubator with 5% CO2 at 37°C. On the first day, the HT-29 cells in the exponential growth phase were collected and plated in 96-well cell culture plates at a density of 1000 cells/well (180 µL/well). The plates were cultured overnight in an incubator with 5% CO2 at 37°C. T0 wells were plated simultaneously during the plating process. The next day, 20 µL of compounds at different concentrations were added to each well (nine compound concentration gradients, one DMSO well, and one blank well; each compound concentration was plated in triplicate), and the final concentration of DMSO in each well was 0.1%. The plates were cultured in an incubator with 5% CO2 at 37°C for 4 days. On the same day of compound addition, the T0 plate was detected using the CellTiter-Glo Kit, and the detected value was recorded as RLU0. After the culture was completed, 100 µL of detection solution (Cell Viability Assay, Promega) was added to each well. The plates were incubated at room temperature for 10 minutes with slow shaking. The chemiluminescence reading was read using a BMG microplate reader (PHERAstar FSX). The results were processed according to Formula (4) to calculate the proliferation inhibition rate of compounds at each concentration. Curve fitting was performed via a four-parameter logistic model using GraphPad Prism software, and the GI50 value (the concentration of the compound when the proliferation inhibition rate was 50%) was calculated. In the formula, RLUcompound is the readout of the drug-treated group, RLUcontrol is the average value of the compound vehicle control group, and RLUBlank is the average value of the blank control group. [formula]

T1 sequence (Q12809 whole entry): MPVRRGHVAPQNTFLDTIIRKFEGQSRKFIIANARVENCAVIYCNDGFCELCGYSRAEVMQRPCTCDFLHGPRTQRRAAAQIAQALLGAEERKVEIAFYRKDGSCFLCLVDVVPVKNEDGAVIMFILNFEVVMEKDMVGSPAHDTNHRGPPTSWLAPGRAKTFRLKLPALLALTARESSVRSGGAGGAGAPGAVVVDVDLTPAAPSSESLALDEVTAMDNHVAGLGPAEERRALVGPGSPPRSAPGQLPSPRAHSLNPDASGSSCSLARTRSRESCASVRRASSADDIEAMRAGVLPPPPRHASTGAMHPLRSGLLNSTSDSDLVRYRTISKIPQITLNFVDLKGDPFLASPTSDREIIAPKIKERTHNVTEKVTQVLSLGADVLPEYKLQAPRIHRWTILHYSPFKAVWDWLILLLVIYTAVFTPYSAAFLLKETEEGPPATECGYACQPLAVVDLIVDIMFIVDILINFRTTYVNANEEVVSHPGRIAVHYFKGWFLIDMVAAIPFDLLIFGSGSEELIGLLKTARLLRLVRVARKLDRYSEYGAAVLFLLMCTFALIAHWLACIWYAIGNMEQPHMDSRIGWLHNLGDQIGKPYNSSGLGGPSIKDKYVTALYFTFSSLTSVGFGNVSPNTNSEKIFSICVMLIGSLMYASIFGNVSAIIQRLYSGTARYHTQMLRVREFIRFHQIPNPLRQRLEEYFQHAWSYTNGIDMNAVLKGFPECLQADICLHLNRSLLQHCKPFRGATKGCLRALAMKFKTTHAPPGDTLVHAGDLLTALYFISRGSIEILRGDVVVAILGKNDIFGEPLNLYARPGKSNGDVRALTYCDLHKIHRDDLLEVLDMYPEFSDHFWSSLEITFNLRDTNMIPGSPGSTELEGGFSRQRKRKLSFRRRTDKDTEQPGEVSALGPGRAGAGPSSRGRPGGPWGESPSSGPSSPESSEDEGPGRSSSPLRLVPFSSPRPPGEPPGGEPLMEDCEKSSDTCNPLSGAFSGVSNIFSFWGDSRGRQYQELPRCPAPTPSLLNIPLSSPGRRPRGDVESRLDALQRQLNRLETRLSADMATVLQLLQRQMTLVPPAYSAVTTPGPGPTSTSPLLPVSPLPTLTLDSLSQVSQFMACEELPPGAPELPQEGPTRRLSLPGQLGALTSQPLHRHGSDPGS

| Compound | IC50 (hERG potassium channel) [µM] | pharmacokinetic properties ([1]; result in words) | AUC(0-t) [2] [ng·h/mL] | IC50 (HT-29 cells) [µM] | AUC(0-t) ([1]; po, mouse plasma, i.g. (10 mg/kg)) [ng·h/mL] | bioavailability ([1]; po, mouse plasma, i.g. (10 mg/kg), read-out: F (%)) [%] | bioavailability ([1]; result in words, in mice) | exposure level ([1]; result in words, in mice) |
| --- | --- | --- | --- | --- | --- | --- | --- | --- |
| Cc1ncnc(C(=O)N2CCN(c3c4n(c5nc(C6=CCOCC6)nn5c3=O)C(C(=O)Nc3ccc(C(F)(F)F)cc3Cl)CCC4)C[C@H]2C)c1O (single isomer, unassigned) [Compound 8-B] | > 40 | favorable |  |  |  |  |  |  |
| Cc1ncnc(C(=O)N2CCN(c3c4n(c5nc(C6=CCOCC6)nn5c3=O)[C@@H](C(=O)Nc3ccc(C(F)(F)F)cc3Cl)CCC4)CC2)c1O [Compound 1-B] | > 40 | favorable | 19900 | ≥ 10 |  |  |  |  |
| Cc1ncnc(C(=O)N2[C@@H](C)CN(c3c4n(c5nc(C6=CCOCC6)nn5c3=O)[C@@H](C(=O)Nc3ccc(C(F)(F)F)cc3Cl)CCC4)C[C@@H]2C)c1O [Compound 20-A] |  | favorable | 19700 | ≥ 10 | 38500 | 93.4 | good | high |
